Measured values taken from patent publication US20230357447A1, “TUMOR ACTIVATED MULTISPECIFIC ANTIBODIES FOR TARGETING CD28 AND PD-L1 AND METHODS OF USE THEREOF” (Janux Therapeutics, Inc., priority 2022, published 2023).

Assays:
[1] = test system: anti-CD28 scFv (SEQ ID NO: 9); assay: Octet bio-layer interferometry kinetic binding of anti-CD28 scFv to peptides; set-up: species or system human; conditions: Octet RED96, 1:1 binding model
Method: (§1) Association and dissociation signals were recorded in real time and analyzed using a 1:1 binding model within the instrument software. Analysis using a 1:1 binding model enabled the calculation of the on and off rate constants as well as affinity, KD.
as §1

[2] = target: Ab-12; assay: Octet bio-layer interferometry kinetic binding of Ab-12 to peptides; conditions: Octet RED96, 1:1 binding model; for Kd: biotinylated peptide loaded at 200 nM on streptavidin biosensors, Ab-12 100, 50, 25, 12.5 nM; for kdis: peptide on sensor, Ab-12 100-12.5 nM
Method: Briefly, streptavidin biosensors were loaded with biotinylated peptides and baselined in buffer. […] After a short association period, sensors were transferred into buffer and the dissociation of bound anti-CD28 scFv or Ab-12 was measured. The timing and steps of the experiment are shown in the accompanying table. Association and dissociation signals were recorded in real time and analyzed using a 1:1 binding model within the instrument software. Analysis using a 1:1 binding model enabled the calculation of the on and off rate constants as well as affinity, KD.

[3] = biotinylated peptide loaded on streptavidin biosensor, anti-CD28 scFv in solution
[4] = peptide on sensor, CD28 scFv 100-12.5 nM

Compound | kdis [1, 3] [s⁻¹] | kdis [1, 4] [s⁻¹] | Kd [2] [nM] | kdis [2] [s⁻¹]
CSCC[C@H](N)C(=O)N[C@@H](CC(=O)O)C(=O)N[C@@H](Cc1c[nH]c2ccccc12)C(=O)N[C@H]1CSSC[C@@H](C(=O)N[C@@H](Cc2ccccc2)C(=O)N[C@@H](Cc2ccccc2)C(=O)O)NC(=O)[C@H](CC(=O)O)NC(=O)[C@H](C(C)C)NC(=O)[C@H](Cc2c[nH]c3ccccc23)NC(=O)[C@H](CCCNC(=N)N)NC(=O)[C@H](CCC(=O)O)NC(=O)[C@H](CCCNC(=N)N)NC(=O)[C@@H]2CCCN2C1=O [Peptide-9] | 0.0115 | 0.0123 | 18.8 | 0.00317
CSCC[C@@H]1NC(=O)[C@H](CC(=O)O)NC(=O)CNC(=O)[C@H](Cc2c[nH]c3ccccc23)NC(=O)[C@H](Cc2ccc(O)cc2)NC(=O)[C@H](Cc2c[nH]cn2)NC(=O)[C@@H](NC(=O)[C@H](Cc2ccc(O)cc2)NC(=O)CN)CSSC[C@@H](C(=O)NCC(=O)O)NC(=O)[C@H](Cc2c[nH]c3ccccc23)NC(=O)[C@H](CCSC)NC(=O)[C@H](C(C)C)NC1=O [Peptide-12] | – | 0.00167 | 13.1 | 0.00127
CSCC[C@@H]1NC(=O)[C@H](Cc2c[nH]cn2)NC(=O)[C@H](CCCNC(=N)N)NC(=O)[C@@H]2CCCN2C(=O)[C@@H](NC(=O)[C@H](Cc2c[nH]c3ccccc23)NC(=O)[C@H](CC(=O)O)NC(=O)[C@@H](N)CCSC)CSSC[C@@H](C(=O)N[C@@H](Cc2ccccc2)C(=O)N[C@@H](C)C(=O)O)NC(=O)[C@H](Cc2ccc(O)cc2)NC(=O)[C@H](CC(N)=O)NC(=O)[C@H](Cc2c[nH]c3ccccc23)NC1=O [Peptide-46] | 0.00218 | – | – | –
CSCC[C@H](N)C(=O)N[C@@H](CC(=O)O)C(=O)N[C@@H](Cc1c[nH]c2ccccc12)C(=O)N[C@H]1CSSC[C@@H](C(=O)N[C@@H](Cc2ccccc2)C(=O)N[C@@H](C)C(=O)O)NC(=O)[C@H](CCC(=O)O)NC(=O)[C@H](Cc2c[nH]cn2)NC(=O)[C@H](Cc2c[nH]c3ccccc23)NC(=O)[C@H](CC(C)C)NC(=O)[C@H](CO)NC(=O)[C@H](CCCNC(=N)N)NC(=O)[C@@H]2CCCN2C1=O [Peptide-47] | 0.00201 | – | – | –
CSCC[C@H](N)C(=O)N[C@@H](CC(=O)O)C(=O)N[C@@H](Cc1c[nH]c2ccccc12)C(=O)N[C@H]1CSSC[C@@H](C(=O)N[C@@H](Cc2ccccc2)C(=O)N[C@@H](C)C(=O)O)NC(=O)[C@H](C(C)C)NC(=O)[C@H](Cc2c[nH]cn2)NC(=O)[C@H](Cc2c[nH]c3ccccc23)NC(=O)[C@H](CC(C)C)NC(=O)[C@H](Cc2ccc(O)cc2)NC(=O)[C@H](CCCNC(=N)N)NC(=O)[C@@H]2CCCN2C1=O [Peptide-48] | 0.00187 | – | – | –
CSCC[C@H](N)C(=O)N[C@@H](Cc1c[nH]cn1)C(=O)N[C@@H](Cc1c[nH]c2ccccc12)C(=O)N[C@H]1CSSC[C@@H](C(=O)N[C@@H](Cc2ccc(O)cc2)C(=O)N[C@@H](CC(N)=O)C(=O)O)NC(=O)[C@H](CC(C)C)NC(=O)[C@H](Cc2ccc(O)cc2)NC(=O)[C@H](Cc2c[nH]c3ccccc23)NC(=O)[C@H](CC(C)C)NC(=O)[C@H](CC(=O)O)NC(=O)[C@H](C(C)C)NC(=O)[C@@H]2CCCN2C1=O [Peptide-49] | 0.00186 | – | – | –
CSCC[C@H](N)C(=O)N[C@@H](CC(=O)O)C(=O)N[C@@H](Cc1c[nH]c2ccccc12)C(=O)N[C@H]1CSSC[C@@H](C(=O)N[C@@H](Cc2ccccc2)C(=O)N[C@@H](C)C(=O)O)NC(=O)[C@H](C(C)C)NC(=O)[C@H](CO)NC(=O)[C@H](Cc2c[nH]c3ccccc23)NC(=O)[C@H](CC(C)C)NC(=O)[C@H](Cc2c[nH]cn2)NC(=O)[C@H](C(C)C)NC(=O)[C@@H]2CCCN2C1=O [Peptide-50] | 0.00443 | – | – | –
